Assays:
Type in all cases: in vivo
Johnson Grass = experiment: Pre-emergent control of seed germination, soil drench; conditions: for % Control: pre-emergence, Johnson Grass; for pre-emergence control: Johnson grass
Description: (§1) Four parts by weight of the compound, 0.08 part of sorbitan trioleate (Span 85), and 0.02 part of a sorbitan monooleate polyoxyethylene derivative (Tween 80) are dipersed in 40 milliliters of acetone to produce a concentrate composition in the form of a water-dispersible liquid containing the predetermined oxirane compound as the sole active agent.
(§2) A portion of each of these concentrate compositions were separately dispersed in portions of water to provide aqueous compositions, containing 0.44 pound of the oxirane compound per 100 gallons of ultimate aqueous mixture.
(§3) The aqueous compositions were then employed for the treatment of seed beds of good agricultural soil which had been prepared and seeded with the seeds of various grass species and broadleaf plants. The grass species included white winter wheat, cultured rice, pigweeds, crabgrass, cheat grass, wild oats, Johnson grass, barnyard grass and yellow foxtail; and the broadleaf plants included corn. In the treating operations, a predetermined quantity of each of the compositions was applied to separate seedbeds as a soil drench at a rate of about 0.43 acre inch of aqueous composition per acre. The quantities were controlled to supply a substantial uniform dosage in a seedbed equivalent to 1.0, 2.0 and 5.0 pounds of the oxirane compound per acre. These dosages correspond, respectively, to a concentration, within the soil depth penetrated of about 1.6, 3.2 and 8.0 parts by weight of the oxirane compound per million parts by weight of soil. Other seedbeds were similarly seeded with the named plant species but were left untreated to serve as checks.
(§4) After about 2 weeks the seedbeds were examined to ascertain what control of the growth of seeds had been obtained.
(§5) were prepared as in Example 32 and similarly employed for the pre-emergencetreatment of various plant species.
(§6) Separate aqueous compositions containing the 2-(m-chlorophenyl)-2-(2,2,2-trichloroethyl)oxirane (Cmpd. A) and 2-(m-bromophenyl)-2-(2,2,2-trichloroethyl)oxirane (Cmpd. C) compounds of the present invention were prepared as in Example 32 for comparative per-emergence herbicide tests against noxious grass species with the known 2 -(p-chlorophenyl)-2-(2,2,2-trichloroethyl)oxirane (Cmpd. B) compound and 2-(p-bromophenyl)-2-(2,2,2-trichloroethyl)oxirane (Cmpd. D). The pre-emergence tests were conducted in Example 32 and the results of such tests are set forth below in Table III.
(§7) An aqueous composition containing 2-(α,α,α -trifluoro-m-tolyl)-2-(2,2,2-trichloroethyl)oxirane was prepared as described in Example 32. The composition was then employed according to the procedures of Example 32 except that lower concentrations of the oxirane compound were employed in the composition.
(§8) The percent control of the various plant species at the employed dosage rate of the 2-(α,α,α-trifluoro-m-tolyl)- 2-(2,2,2-trichloroethyl) supplied by the composition is set forth in the following Table IV.

Crabgrass = experiment: as above; conditions: for % Control: pre-emergence, Crab Grass; for pre-emergence control: crabgrass
Description: as §1, §2, §3, §4, §5, §6, §7, §8

Water-Grass = experiment: Comparative pre-emergence herbicide test
Description: as §1, §2, §3, §4, §6

Wild Oats = experiment: Pre-emergent control of seed germination, soil drench; conditions: wild oats
Description: as §1, §2, §3, §4, §5, §7, §8

Pigweeds = experiment: as above; conditions: pigweeds, 2.0 pounds per acre
Description: as §1, §2, §3, §4, §5, §7, §8

Barnyard Grass = experiment: as above; conditions: barnyard grass
Description: as §1, §2, §3, §4, §5, §7, §8

Yellow Foxtail = experiment: as above; conditions: yellow foxtail
Description: as §1, §2, §3, §4, §5, §7, §8

[1] = 0.25 to 0.5 pounds per acre, respectively

## Clc1ccc(C2(CC(Cl)(Cl)Cl)CO2)cc1 (stereo not shown) [Cmpd. B, 2-(p-chlorophenyl)-2-(2,2,2-trichloroethyl)oxirane, reference compound]
Johnson Grass; 1/8 Lb/Acre
  % Control: 30%
Johnson Grass; 1/16 Lb/Acre
  % Control: 0%
Crabgrass; 1/8 Lb/Acre
  % Control: 20%
Crabgrass; 1/16 Lb/Acre
  % Control: 0%
Water-Grass; 1/8 Lb/Acre
  % Control: 90%
Water-Grass; 1/16 Lb/Acre
  % Control: 60%

## ClC(Cl)(Cl)CC1(c2ccc(Br)cc2)CO1 (stereo not shown) [Cmpd. D, 2-(p-bromophenyl)-2-(2,2,2-trichloroethyl)oxirane, reference compound]
Johnson Grass; 1/8 Lb/Acre
  % Control: 25%
Johnson Grass; 1/16 Lb/Acre
  % Control: 0%
Crabgrass; 1/8 Lb/Acre
  % Control: 0%
Crabgrass; 1/16 Lb/Acre
  % Control: 0%
Water-Grass; 1/8 Lb/Acre
  % Control: 60%
Water-Grass; 1/16 Lb/Acre
  % Control: 30%

## Clc1ccc(C2(CC(Cl)(Cl)Cl)CO2)cc1Cl (stereo not shown) [Example 5, 2-(3,4-dichlorophenyl)-2-(2,2,2-trichloroethyl)oxirane]
Johnson Grass; 2.0 pounds per acre
  pre-emergence control: substantially complete control
Crabgrass; 2.0 pounds per acre
  pre-emergence control: substantially complete control
Wild Oats; 2.0 pounds per acre
  pre-emergence control: substantially complete control
Pigweeds
  pre-emergence control: substantially complete control

## Clc1cccc(C2(CC(Cl)(Cl)Cl)CO2)c1 (stereo not shown) [Example 7, 2-(m-chlorophenyl)-2-(2,2,2-trichloroethyl)oxirane]
Johnson Grass; [1]
  pre-emergence control: Substantially complete pre-emergence control
Johnson Grass; 1/8 Lb/Acre
  % Control: 100%
Johnson Grass; 1/16 Lb/Acre
  % Control: 100%
Crabgrass; [1]
  pre-emergence control: Substantially complete pre-emergence control
Crabgrass; 1/8 Lb/Acre
  % Control: 100%
Crabgrass; 1/16 Lb/Acre
  % Control: 100%
Wild Oats; [1]
  pre-emergence control: Substantially complete pre-emergence control
Barnyard Grass; [1]
  pre-emergence control: Substantially complete pre-emergence control
Yellow Foxtail; [1]
  pre-emergence control: Substantially complete pre-emergence control
Water-Grass; 1/8 Lb/Acre
  % Control: 90%
Water-Grass; 1/16 Lb/Acre
  % Control: 85%

## Cc1cccc(C2(CC(Cl)(Cl)Cl)CO2)c1 (stereo not shown) [Example 9, 2-(m-tolyl)-2-(2,2,2-trichloroethyl)oxirane]
Johnson Grass; 2.0 pounds per acre
  pre-emergence control: substantially complete control
Crabgrass; 2.0 pounds per acre
  pre-emergence control: substantially complete control
Wild Oats; 2.0 pounds per acre
  pre-emergence control: substantially complete control
Pigweeds
  pre-emergence control: substantially complete control
Barnyard Grass; 2.0 pounds per acre
  pre-emergence control: substantially complete control
Yellow Foxtail; 2.0 pounds per acre
  pre-emergence control: substantially complete control

## COc1cccc(C2(CC(Cl)(Cl)Cl)CO2)c1 (stereo not shown) [Example 12, 2-(m-methoxyphenyl)-2-(2,2,2-trichloroethyl)oxirane]
Johnson Grass; 2.0 pounds per acre
  pre-emergence control: substantially complete pre-emergence control
Crabgrass; 2.0 pounds per acre
  pre-emergence control: substantially complete pre-emergence control
Pigweeds
  pre-emergence control: substantially complete pre-emergence control
Barnyard Grass; 2.0 pounds per acre
  pre-emergence control: substantially complete pre-emergence control

## CCOc1cccc(C2(CC(Cl)(Cl)Cl)CO2)c1 (stereo not shown) [Example 14, 2-(m-ethoxyphenyl)-2-(2,2,2-trichloroethyl)oxirane]
Johnson Grass; 2.0 pounds per acre
  pre-emergence control: substantially complete control
Crabgrass; 2.0 pounds per acre
  pre-emergence control: substantially complete control
Wild Oats; 2.0 pounds per acre
  pre-emergence control: substantially complete control
Barnyard Grass; 2.0 pounds per acre
  pre-emergence control: substantially complete control

## Fc1cccc(C2(CC(Cl)(Cl)Cl)CO2)c1 (stereo not shown) [Example 19, 2-(m-fluorophenyl)-2-(2,2,2-trichloroethyl)oxirane]
Johnson Grass; [1]
  pre-emergence control: Substantially complete pre-emergence control
Crabgrass; [1]
  pre-emergence control: Substantially complete pre-emergence control
Wild Oats; [1]
  pre-emergence control: Substantially complete pre-emergence control
Barnyard Grass; [1]
  pre-emergence control: Substantially complete pre-emergence control
Yellow Foxtail; [1]
  pre-emergence control: Substantially complete pre-emergence control

Source: patent US4018801A, “Substituted oxirane compounds” (The Dow Chemical Company, priority 1975, dated 1977)
